ChEMBL document CHEMBL1177843, “Metal based biologically active compounds: design, synthesis, and antibacterial/antifungal/cytotoxic properties of triazole-derived Schiff bases and their oxovanadium(IV) complexes” (Eur J Med Chem, 2010)
In brackets after ≈: the same amount, converted by molar mass.

Columns and labels:
Artemia salina = assay: Toxicity in Artemia salina nauplii assessed as mortality after 24 hrs; assay type: organism-based; details: in vivo
Escherichia coli = assay: Antibacterial activity against Escherichia coli at 1 mg/ml after 24 hrs by agar-well diffusion method; assay type: functional; details: for zone of inhibition at 1000 µg/mL: Escherichia coli, 24 h, read-out: DIZ
Shigella flexneri = assay: Antibacterial activity against Shigella flexneri at 1 mg/ml after 24 hrs by agar-well diffusion method; assay type: functional; details: for zone of inhibition at 1000 µg/mL: Shigella flexneri, 24 h, read-out: DIZ
Pseudomonas aeruginosa = assay: Antibacterial activity against Pseudomonas aeruginosa at 1 mg/ml after 24 hrs by agar-well diffusion method; assay type: functional; details: for zone of inhibition at 1000 µg/mL: Pseudomonas aeruginosa, 24 h, read-out: DIZ
Salmonella enterica = assay: Antibacterial activity against Salmonella typhi at 1 mg/ml after 24 hrs by agar-well diffusion method; assay type: functional, Salmonella enterica subsp. enterica serovar Typhi; details: for zone of inhibition at 1000 µg/mL: Salmonella enterica, 24 h, read-out: DIZ
Staphylococcus aureus = assay: Antibacterial activity against Staphylococcus aureus at 1 mg/ml after 24 hrs by agar-well diffusion method; assay type: functional; details: for zone of inhibition at 1000 µg/mL: Staphylococcus aureus, 24 h, read-out: DIZ
Bacillus subtilis = assay: Antibacterial activity against Bacillus subtilis at 1 mg/ml after 24 hrs by agar-well diffusion method; assay type: functional; details: for zone of inhibition at 1000 µg/mL: Bacillus subtilis, 24 h, read-out: DIZ
Aspergillus flavus = assay: Antifungal activity against Aspergillus flavus after 7 days; assay type: functional; details: 168 h
Trichophyton longifusum = assay: Antifungal activity against Trichophyton longifusum after 7 days; assay type: functional; details: 168 h
Candida albicans = assay: Antifungal activity against Candida albicans after 7 days; details: 168 h
Microsporum canis = assay: Antifungal activity against Microsporum canis after 7 days; assay type: functional; details: 168 h
Fusarium solani = assay: Antifungal activity against Fusarium solani after 7 days; assay type: functional; details: 168 h
Nakaseomyces glabratus = assay: Antifungal activity against Candida glabrata after 7 days; assay type: functional; details: 168 h

Compound | LD50 (Artemia salina) | Activity (Escherichia coli) | zone of inhibition at 1000 µg/mL (Escherichia coli) | Activity (Shigella flexneri) | zone of inhibition at 1000 µg/mL (Shigella flexneri) | Activity (Pseudomonas aeruginosa) | zone of inhibition at 1000 µg/mL (Pseudomonas aeruginosa) | Activity (Salmonella enterica) | zone of inhibition at 1000 µg/mL (Salmonella enterica) | Activity (Staphylococcus aureus) | zone of inhibition at 1000 µg/mL (Staphylococcus aureus) | Activity (Bacillus subtilis) | zone of inhibition at 1000 µg/mL (Bacillus subtilis) | MIC (Aspergillus flavus) | MIC (Trichophyton longifusum) | MIC (Candida albicans) | MIC (Microsporum canis) | MIC (Fusarium solani) | MIC (Nakaseomyces glabratus)
C/C(=N\c1n[nH]c(/N=C(\C)c2ccccn2)n1)c1ccccn1 | > 3.341 ×10⁻⁴ M/ml | 58% | 17 mm | 39% | 12 mm | 58% | 18 mm | 58% | 16 mm | 39% | 11 mm | 39% | 13 mm |  |  |  |  |  | 
Oc1ccc2ccccc2c1/C=N/c1n[nH]c(/N=C/c2c(O)ccc3ccccc23)n1 | > 7.614 ×10⁻⁴ M/ml | 35% | 11 mm | 35% | 13 mm | 35% | 11 mm | 35% | 14 mm | 35% | 12 mm | 57% | 16 mm |  |  |  |  |  | 
C(=N\c1n[nH]c(/N=C/c2ccc[nH]2)n1)/c1ccc[nH]1 | > 6.897 ×10⁻⁴ M/ml | 55% | 17 mm | 39% | 12 mm | 39% | 14 mm | 55% | 16 mm | 39% | 11 mm | 39% | 13 mm |  |  |  |  |  | 
C(=N\c1n[nH]c(/N=C/c2ccccn2)n1)/c1ccccn1 | > 4.128 ×10⁻⁴ M/ml | 43% | 15 mm | 58% | 18 mm | 43% | 13 mm | 43% | 11 mm | 58% | 16 mm | 43% | 12 mm |  |  |  |  |  | 
C[C@@H]1[C@H](O)[C@@H](C)/C=C/C=C/C=C/C=C/C=C/C=C/C=C/[C@H](O[C@@H]2O[C@H](C)[C@@H](O)[C@H](N)[C@@H]2O)C[C@@H]2O[C@](O)(C[C@@H](O)C[C@@H](O)[C@H](O)CC[C@@H](O)C[C@@H](O)CC(=O)O[C@H]1C)C[C@H](O)[C@H]2C(=O)O [AMPHOTERICIN B] |  |  |  |  |  |  |  |  |  |  |  |  |  | 20 µg/mL (≈ 21.6 µM) |  |  |  |  | 
C[C@@H](O)[C@H]1C(=O)N2C(C(=O)O)=C(SCCNC=N)C[C@H]12 [IMIPENEM ANHYDROUS] |  |  | 29 mm |  | 31 mm |  | 30 mm |  | 29 mm |  | 26 mm |  | 28 mm |  |  |  |  |  | 
Clc1ccc(COC(Cn2ccnc2)c2ccc(Cl)cc2Cl)c(Cl)c1 (centres undefined) [MICONAZOLE] |  |  |  |  |  |  |  |  |  |  |  |  |  |  | 70 µg/mL (≈ 168 µM) | 111 µg/mL (≈ 266 µM) | 98.4 µg/mL (≈ 236 µM) | 73.2 µg/mL (≈ 176 µM) | 111 µg/mL (≈ 266 µM)
